“And” between values parts separate entries of the source, which are not always exact repeats. Equal entries are not always repeated. Where two headings read alike, the source gives them in different places.
What was measured:
[1] = molecular target: T1, human CYP17A1 (Homo sapiens, UniProt P05093); design: method as in PMID 28373265; conditions: ref [11]; cited from earlier work
T1 construct: made in house
T1 sequence (P05093 24-508 limits assumed): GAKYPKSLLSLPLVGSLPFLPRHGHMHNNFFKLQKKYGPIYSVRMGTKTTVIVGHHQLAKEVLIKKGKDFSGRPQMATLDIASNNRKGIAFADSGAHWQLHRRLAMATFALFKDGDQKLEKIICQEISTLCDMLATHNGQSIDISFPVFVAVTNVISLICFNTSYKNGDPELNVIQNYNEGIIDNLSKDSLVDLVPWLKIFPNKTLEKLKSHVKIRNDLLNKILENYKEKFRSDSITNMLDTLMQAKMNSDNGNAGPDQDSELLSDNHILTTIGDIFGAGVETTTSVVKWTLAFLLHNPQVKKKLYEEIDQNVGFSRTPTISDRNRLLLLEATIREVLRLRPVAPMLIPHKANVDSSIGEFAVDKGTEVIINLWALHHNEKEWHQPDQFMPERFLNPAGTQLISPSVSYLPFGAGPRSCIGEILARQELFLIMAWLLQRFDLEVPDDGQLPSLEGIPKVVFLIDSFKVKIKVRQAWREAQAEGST

[2] = molecular target: T2, human cytochrome P450 17A1 (Homo sapiens, UniProt P05093); conditions: ref [10]; read-out: CYP17A1 Kd; cited from earlier work
T2 construct: made in house
T2 sequence (P05093 1-508): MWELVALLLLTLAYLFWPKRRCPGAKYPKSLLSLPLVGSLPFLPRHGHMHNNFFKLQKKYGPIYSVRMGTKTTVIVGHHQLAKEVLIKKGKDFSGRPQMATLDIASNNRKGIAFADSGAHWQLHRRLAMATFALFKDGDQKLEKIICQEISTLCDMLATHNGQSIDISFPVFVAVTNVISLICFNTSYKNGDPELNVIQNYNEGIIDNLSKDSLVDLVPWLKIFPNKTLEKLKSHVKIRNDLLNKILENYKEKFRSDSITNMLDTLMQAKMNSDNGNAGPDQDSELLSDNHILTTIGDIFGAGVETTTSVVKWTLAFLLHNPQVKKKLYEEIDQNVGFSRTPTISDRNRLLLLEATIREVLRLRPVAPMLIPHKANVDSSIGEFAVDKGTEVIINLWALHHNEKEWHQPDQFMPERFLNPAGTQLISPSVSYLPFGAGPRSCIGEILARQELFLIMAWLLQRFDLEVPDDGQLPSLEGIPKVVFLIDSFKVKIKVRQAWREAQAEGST

[3] = system: PC3 cells; assay: Prostate cancer cell line proliferation screening (GR), PC3; format: cell-based, human; conditions: 10 µM, 48 h
Experimental: Next, we tested the effect of compounds 1a–1e on prostate cancer derived cell lines. The anti-proliferative activity was determined in vitro by adding 10 µM compound to each of three prostate cancer cell lines (LNCaP, DU145, and PC3). As an additional comparison, immortalized non-cancerous fibroblasts (BJ hTERT) were used. These cancer cell lines are considered the classic standard of PCa cell culture. Since these cell lines grew at very different rates, inhibition of growth rate (GR) was used as a metric. All compounds except 1e were non-toxic to non-cancerous cells. Compounds 1a and 1c were both cytotoxic in the PC3 cell line (Figure 3). […] DU145 cells were weakly affected by only compound 1e with growth rate inhibition more than 50% (GR < 0.5). […] We observed substantial susceptibility of PC3 cells in comparison to DU145 (see Supplementary Materials S3 for GR50 in PC3 cells). These two cell lines are similar in many respects. […] However, they differ in their origins, PC3 being derived from a lumbar vertebral metastatic prostate tumour and DU145 from a brain metastatic prostate tumour. […] By observing a uniform response of all cell lines used in the present study to 5-fluorouracil (5-FU), we were able to rule out any general cell dependent variability in chemosensitivity towards anti-metabolite treatment. Still, chemoresistance in PC3 and DU145 may be mediated by other mechanisms. While AR also functions as a tumour suppressor inhibiting cell proliferation, it is possible in AR deprived cells to observe growth inhibition when cells retain necessary coregulators. […]
Cells were grown to approximately 80% confluence in 150 mm culture dishes and harvested by 0.25% Trypsin/EDTA (Gibco) treatment. Released cells were counted and seeded in 384 well plates (Falcon, ref. 353962) in 30 µl media with a cell count of 1500 (BJ cells, PC-3) or and 3500 (LNCaP (Lund)) cells per well. […] The cells incubated for 24 h, after which cell counts in wells of one 384-well plate were determined as described below (time zero). […]

[4] = molecular target: T1, human CYP17A1; assay: Cytochrome P450 17A1 progesterone 17α-hydroxylation inhibition assay; format: biochemical; conditions: recombinant purified CYP17A1
Experimental: Regardless of their binding affinity, all compounds were tested for their ability to inhibit progesterone 17α-hydroxylation by recombinant purified CYP17A1 (Supplementary Materials S2).
Purified recombinant human CYP17A1 (20 pmol) and human full-length cytochrome P450 reductase (80 pmol) were used to convert progesterone (purchased from Acros Organics, Fair Lawn, NJ, USA) (6 µM) to 17α-hydroxyprogesterone. Test inhibitors were dissolved in DMSO and initially tested in concentrations ranging from 1.3 to 41 µM. In subsequent assays the range of inhibitor concentrations was optimized to best define the IC50 of individual compounds. Reactions were run and the 17α -hydroxyprogesterone product measured by LC-MS as previously published.
IC50 curves for compounds inhibiting CYP17A1 progesterone 17-hydroxylation (black circles),
CYP21A2 progesterone 21-hydroxylation (red diamonds), CYP3A4 nifedipine metabolism
(green squares), and CYP2D6 quinidine metabolism (blue triangles).
(§1) (1 picture or pasted object on this page, not shown here)

[5] = molecular target: T2, human cytochrome P450 17A1; assay: Spectral binding assay (CYP17A1 ligand binding); conditions: purified recombinant human CYP17A1, spectral titration
Source text: The target compounds were initially tested for binding mode and affinity for CYP17A1 using a spectral binding assay. This assay can distinguish the mode of interaction, with a blue shift of the Soret absorbance occurring when ligand displaces water from the heme iron to generate a five-coordinate iron without direct coordination to the heme iron (type I, similar to most substrates) or a red shift of the Soret peak when the ligand nitrogen replaces the water to directly interact with the six-coordinate iron (type II, similar to many inhibitors). […] This 3-pyridyl fragment is also found in abiraterone.
Initial ligand binding was evaluated by measuring absorbance changes in CYP17A1 upon addition of ligands. Purified recombinant human cytochrome P450 17A1 enzyme (1 µM) in buffer (25 mM potassium phosphate, pH 7.4, 200 mM NaCl, 20% glycerol) was titrated with ligands. Ligands were dissolved in DMSO and added to three concentrations (500, 1000, and 2000 nM). The spectral intensity difference (ΔA) was measured as difference between […]. The Amin was typically at ~410 nm and Amax at ~440 nm for the type II changes observed for these ligands.
S2. Binding spectra and CYP IC50 curves
Difference spectrum of cytochrome P450 17A1 with vs. without compound 1a (2 µM).
All compounds are type II and display the same shift as the example above.
as §1

C[C@]12CC[C@H](O)CC1=CC[C@@H]1[C@@H]2CC[C@]2(C)C(c3cccnc3)=CC[C@@H]12 [Abiraterone]
IC50 [1]: 80 nM
Kd [2]: < 100 nM
Antiproliferative response in PC3 cells (growth rate inhibition, in words) [3]: low antiproliferative activity

c1ccc2c(c1)ncn2-c1ccc(Nc2ccncc2)cc1 [Compound 1a]
IC50 [4]: 8000 nM and 8060 nM
Kd [5]: 290 ± 55 nM
Antiproliferative response in PC3 cells (growth rate inhibition, in words) [3]: cytotoxic

c1ccc(Nc2ccc(-n3cnc4ccccc43)cc2)nc1 [Compound 1b]
IC50 [4]: > 10000 nM
Kd [5]: 420 ± 70 nM
